# Measurements as given in the supplement of paper PMC10307832.
# Experiments:
# Assay in all cases: relative viability (nuclei count vs DMSO), 5 days (fraction); higher = more cells survive
# [1] = compound: C1CC(C2=C(C1)C3=C(N2)C=CC(=C3)Cl)C(=O)N [Selisistat] + Cc1nc(NC(=O)N2CCC[C@H]2C(N)=O)sc1-c1ccnc(C(C)(C)C(F)(F)F)c1 [Alpelisib] (partner 2 µM)
# How it was run: (§1)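 Cells from lung cancer lines were seeded into 1536-well plates and, one day later, dosed by pin tool. Treatments were either a single drug or a fixed dose of an anchor drug with five library-drug doses (not always all listed) in √10 steps. After 5 days, nuclei were stained in a one-step fixation (final 0.05% Triton X-100, 1% formaldehyde, 1 ug/ml Hoechst) and counted on 4× images, and relative viability is the treated-to-vehicle nuclei ratio, as the median of duplicate plates.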
# [2] = compound: c1ccc2c(CCNc3ccc(Nc4ccncc4)cc3)c[nH]c2c1 [Serdemetan] + C[C@]1(O)C[C@@H](c2nc(-c3ccc4ccc(-c5ccccc5)nc4c3)c3c(N)nccn32)C1 [Linsitinib] (partner 1 µM)
# How it was run: as §1
# [3] = compound: c1ccc2c(CCNc3ccc(Nc4ccncc4)cc3)c[nH]c2c1 [Serdemetan] + CC(=O)c1c(C)c2cnc(Nc3ccc(N4CCNCC4)cn3)nc2n(C2CCCC2)c1=O [Palbociclib] (partner 0.5 µM)
# How it was run: as §1
# [4] = compound: c1ccc2c(CCNc3ccc(Nc4ccncc4)cc3)c[nH]c2c1 [Serdemetan] + CC1(C)CCC(c2ccc(Cl)cc2)=C(CN2CCN(c3ccc(C(=O)NS(=O)(=O)c4ccc(N[C@H](CCN5CCOCC5)CSc5ccccc5)c(S(=O)(=O)C(F)(F)F)c4)cc3)CC2)C1 [Navitoclax] (partner 0.5 µM)
# How it was run: as §1
cell line,measurement,setting,value
UMC-11,relative viability,[1]; first compound 0.4 µM,1.19
same,relative viability,[1]; first compound 1.265 µM,0.99
same,relative viability,[1]; first compound 4 µM,1.04
same,relative viability,[1]; first compound 12.65 µM,0.994
same,relative viability,[1]; first compound 40 µM,0.887
same,relative viability,[2]; first compound 0.04 µM,1.03
same,relative viability,[2]; first compound 0.1265 µM,0.902
same,relative viability,[2]; first compound 0.4 µM,0.873
same,relative viability,[2]; first compound 1.265 µM,0.701
same,relative viability,[2]; first compound 4 µM,0.828
same,relative viability,[3]; first compound 0.04 µM,0.333
same,relative viability,[3]; first compound 0.1265 µM,0.343
same,relative viability,[3]; first compound 0.4 µM,0.381
same,relative viability,[3]; first compound 1.265 µM,0.344
same,relative viability,[3]; first compound 4 µM,0.281
same,relative viability,[4]; first compound 0.04 µM,0.327
same,relative viability,[4]; first compound 0.1265 µM,0.387
same,relative viability,[4]; first compound 0.4 µM,0.314
same,relative viability,[4]; first compound 1.265 µM,0.266
same,relative viability,[4]; first compound 4 µM,0.313
